Measured values as given in patent publication US20250304985A1, “Genetically Engineered Plants for Increased Production of Vindoline” (Northeastern University, priority 2022, published 2025).

Assays:
Format in all cases: in vivo, Catharanthus roseus
[1] = system: CrDELLA1 and CrDELLA2 transcript levels; assay: Paclobutrazol treatment of etiolated seedlings: DELLA transcript levels by qPCR; details: 1 μM PAC, dark-grown seedlings, 4 days, vs DMSO mock
Description: (§1) Because PAC might disrupt germination, seedlings were first germinated normally without any treatment by incubating them in the dark for 5 days at 27° C. The germinated seeds were then transferred to either media containing 1 μM PAC or media containing an equal volume of DMSO as a mock treatment. These seedlings were kept in the dark for 4 more days before being harvested for gene expression analysis.
Gene expression levels were monitored using quantitative real-time PCR (qRT-PCR) with primers listed in Table 1. mRNA was extracted from liquid nitrogen flash-frozen leaf tissue or seedlings stored at −80° C. […] RNA integrity was assessed using agarose gel electrophoresis, and concentration and purity were quantified with a NanoDrop (ND-1000 Spectrophotometer; ThermoScientific). cDNA was synthesized using either the SuperScript II First-Strand Synthesis System (Invitrogen) or the LunaScript RT SuperMix Kit (New England Biolabs) with up to 2.5 μg of RNA, according to manufacturer's instructions. cDNA was diluted 1:4, and 1 μL was used in a 10 μL reaction with SYBR Green ROX qPCR Master Mix (Qiagen or ABClonal) and 300 nM primers on the MX3000P qPCR instrument (Agilent) using the thermocycler protocol previously described with an extension time of 30 seconds. Ct values for each biological replicate were calculated as the average of two technical replicates. […]

C. roseus seedlings = assay: Paclobutrazol treatment of etiolated seedlings: seedling height; details: 1 μM PAC, dark-grown seedlings, 4 days, vs DMSO mock
Description: as §1
Seedlings treated with PAC were photographed and lengths were measured with ImageJ. Statistical significance for all phenotype measurements was analyzed with a two-tailed unpaired T-test.
C. roseus var. Little Bright Eye seeds (NESeeds, 0.8 g) were sterilized by submersion in 4% Plant Preservative Mixture (PPM) for 18 hours in the dark. The PPM was then decanted, and the seeds were spread on full-strength Gamborg's media (3.1 g/L Gamborg's basal salts, 1× Gamborg's vitamins, and 6% micropropagation agar type 1, Phytotechnology Laboratory) inside a sterile Magenta™ Plant Culture Box (Sigma) for germination. […] Seedlings were maintained in the dark at 27° C. for 4 days, and then were harvested by placing 3 whole seedlings in a 2 mL screw cap tube containing ten 3 mm glass beads for each biological replicate, flash-freezing in liquid nitrogen, and storing at −80° C. until ready for RNA extraction and qPCR analysis.

CrLHCB2.2 = assay: Paclobutrazol treatment of etiolated seedlings: CrLHCB2.2 expression by qPCR (positive control); details: 1 μM PAC, dark-grown seedlings, 4 days, vs DMSO mock; normalized to SAND
Description: as §1
This is consistent with GA's positive role in growth and served as a good indicator that the PAC was having an effect on the seedlings. As a positive control, expression of CrLHCB2.2 was measured; CrLHCB2.2 is a homologue of the light harvesting complex subunit B 2.2, which was previously shown to be activated by PAC treatment of dark-grown seedlings in A. thaliana.
Gene expression levels were monitored using quantitative real-time PCR (qRT-PCR) with primers listed in Table 1. mRNA was extracted from liquid nitrogen flash-frozen leaf tissue or seedlings stored at −80° C. […] Ct values for each biological replicate were calculated as the average of two technical replicates. Transcript levels were normalized to the housekeeping gene, SAND [76], and fold changes relative to the negative control condition were calculated according to the […]. Amplification efficiency for each primer set was confirmed using Ct values over a range of cDNA dilutions and was 100%±10% for each gene monitored. […]

[2] = system: vindoline pathway gene expression; assay: Paclobutrazol treatment of etiolated seedlings: vindoline pathway gene expression by qPCR; details: 1 μM PAC, dark-grown seedlings, 4 days, vs DMSO mock
Description: as §1
Gene expression levels were monitored using quantitative real-time PCR (qRT-PCR) with primers listed in Table 1. mRNA was extracted from liquid nitrogen flash-frozen leaf tissue or seedlings stored at −80° C. While still frozen, tissue was crushed by shaking in a Mini-BeadBeater-16 (Biospec) for 15 seconds with ten 3 mm glass beads (Fisher). Afterwards, RNA was extracted with RNAzol-RT (Molecular Research Center) and the Direct-zol RNA Miniprep Plus Kit (Zymo Research) with on-column DNAse treatment to remove genomic DNA. RNA integrity was assessed using agarose gel electrophoresis, and concentration and purity were quantified with a NanoDrop (ND-1000 Spectrophotometer; ThermoScientific). cDNA was synthesized using either the SuperScript II First-Strand Synthesis System (Invitrogen) or the LunaScript RT SuperMix Kit (New England Biolabs) with up to 2.5 μg of RNA, according to manufacturer's instructions. cDNA was diluted 1:4, and 1 μL was used in a 10 μL reaction with SYBR Green ROX qPCR Master Mix (Qiagen or ABClonal) and 300 nM primers on the MX3000P qPCR instrument (Agilent) using the thermocycler protocol previously described with an extension time of 30 seconds. Ct values for each biological replicate were calculated as the average of two technical replicates. Transcript levels were normalized to the housekeeping gene, SAND [76], and fold changes relative to the negative control condition were calculated according to the […]. Amplification efficiency for each primer set was confirmed using Ct values over a range of cDNA dilutions and was 100%±10% for each gene monitored. Specificity of the primers were confirmed by gel electrophoresis and sequencing. SAND Ct values in no reverse-transcriptase controls were confirmed to be at least 5 Ct values above the respective experimental sample, indicating minimal genomic DNA contamination.
C. roseus var. Little Bright Eye seeds (NESeeds, 0.8 g) were sterilized by submersion in 4% Plant Preservative Mixture (PPM) for 18 hours in the dark. The PPM was then decanted, and the seeds were spread on full-strength Gamborg's media (3.1 g/L Gamborg's basal salts, 1× Gamborg's vitamins, and 6% micropropagation agar type 1, Phytotechnology Laboratory) inside a sterile Magenta™ Plant Culture Box (Sigma) for germination. Seeds were germinated in the dark at 27° C. for 5 days until the radicle of the seedling had just emerged. A 100 mM stock solution of paclobutrazol (PAC, PhytoTechnology Laboratories) was prepared with DMSO as the solvent, filter-sterilized, and stored at −20° C. until use. A final concentration of 1 μM PAC or an equivalent amount of DMSO (mock) was added to Gamborg's media after autoclaving. After germination, seedlings were sterilely transferred to a new Magenta™ Box containing Gamborg's media containing 1 μM PAC or DMSO. Seedlings were maintained in the dark at 27° C. for 4 days, and then were harvested by placing 3 whole seedlings in a 2 mL screw cap tube containing ten 3 mm glass beads for each biological replicate, flash-freezing in liquid nitrogen, and storing at −80° C. until ready for RNA extraction and qPCR analysis.

In the case of `CC(C)(C)[C@@H](O)[C@@H](Cc1ccc(Cl)cc1)n1cncn1` (racemic) [PAC, paclobutrazol], the CrDELLA1 expression [1] is reported as “significantly decreased expression”, the CrDELLA2 expression [1] is reported as “significantly decreased expression” and the seedling height (C. roseus seedlings) is reported as “significant decrease”. The “activation of CrLHCB2.2 expression” value (CrLHCB2.2) was > 2 fold, the D4H gene expression [2] was “significant decrease” and the T16H2 gene expression [2] was “no effect”. The “activation of DAT gene expression” value ([2]; not statistically significant) was “approximately 50%”, the “activation of NMT gene expression” value ([2]; not statistically significant) was “approximately 50%” and the “activation of T3O gene expression” value ([2]; not statistically significant) was “approximately 50%”. For the same molecule, the “activation of T3R gene expression” value ([2]; not statistically significant) was “approximately 50%” and the “activation of 16OMT gene expression” value ([2]; statistically significant) was “approximately 50%”.
